These results are taken from paper PMC6792352, “Limited Chemical Structural Diversity Found to Modulate Thyroid Hormone Receptor in the Tox21 Chemical Library” (Environmental Health Perspectives, 2019).

Where a name gives a salt, the structure may show the parent alone.

A short description of the series: in vitro. The settings on record: rat, gh3-tre-luc cells.

As a reminder, the CC50 is the concentration at which the toxic effect on the cells reaches its halfway point. In the case of `CC(O)CCCCn1c(=O)c2c(ncn2C)n(C)c1=O` (racemic) [(+/-)-Lisofylline], under “AC50 (uM) modified / 1000”, the CC50 at 24 h is above 50 µM. As for `CCCOC(C(=O)OC1CCN(C)CC1)(c1ccccc1)c1ccccc1` [Propiverine hydrochloride], under “AC50 (uM) modified / 1000”, the CC50 at 24 h is 14.7 µM. Turning to `CCOC(=O)C1=NOC(c2ccccc2)(c2ccccc2)C1` [Isoxadifen-ethyl], the CC50 at 24 h (AC50 (uM) modified / 1000) was above 90 µM.

As for `CC(=O)Nc1c(I)cc(I)c(C(=O)O)c1I` [Acetrizoic acid], the CC50 at 24 h (AC50 (uM) modified / 1000) is above 50 µM. With `CC(O)c1ccccc1` (stereo not drawn) [alpha-Methylbenzyl alcohol], where the note is “AC50 (uM) modified / 1000”, the CC50 at 24 h is above 90 µM.

Turning to `SC1CCCCC1` [Cyclohexanethiol], the CC50 at 24 h (AC50 (uM) modified / 1000) is above 100 µM.

As for `OC(O)C(Cl)(Cl)Cl` [Chloral hydrate], the CC50 at 24 h is, setting by setting: (AC50 (uM) modified / 1000, Tox21_110001=Tox21_111614, viability, 1 nM T3 present, 24 h) above 50 µM; (AC50 (uM) modified / 1000, Tox21_110001=Tox21_200110, viability, 1 nM T3 present, 24 h) above 90 µM. `CCCCNc1ccc(C(=O)OCCOCCOCCOCCOCCOCCOCCOCCOCCOC)cc1` [Benzonatate]: the CC50 at 24 h (AC50 (uM) modified / 1000) is above 20 µM. As for `NC1(c2ccc(-c3nc4ccn5c(=O)[nH]nc5c4cc3-c3ccccc3)cc2)CCC1` [MK-2206], the CC50 at 24 h (AC50 (uM) modified / 1000) worked out at 16.8 µM. On to `CC(C)OC(=O)c1cc(C(=O)OC(C)C)cc([N+](=O)[O-])c1` [Nitrothal-isopropyl], for which, where the note is “AC50 (uM) modified / 1000”, the CC50 at 24 h is above 90 µM. The compound `CCNC(=O)NCCCOc1cccc(CN2CCCCC2)c1` [Dalcotidine] showed a CC50 at 24 h (AC50 (uM) modified / 1000) above 50 µM.

With `Nc1ccc(Cl)c(N)c1` [4-Chloro-1,3-diaminobenzene], for the setting “AC50 (uM) modified / 1000”, the CC50 at 24 h is above 90 µM. For the compound `c1ccc(NNc2ccccc2)cc1` [1,2-Diphenylhydrazine], the CC50 at 24 h (AC50 (uM) modified / 1000, Tox21_110001=Tox21_202323, viability, 1 nM T3 present, 24 h) was above 90 µM and the CC50 at 24 h (AC50 (uM) modified / 1000, Tox21_110001=Tox21_300492, viability, 1 nM T3 present, 24 h) amounted to 67.9 µM.

With `CC(C)(C)C1(CCc2ccc(Cl)cc2)CO1` (stereo not drawn) [2-(2-(4-Chlorophenyl)ethyl)-2-(1,1-dimethylethyl)oxirane], the CC50 at 24 h (AC50 (uM) modified / 1000) was above 90 µM. Compound `C[C@@H]([C@H](O)c1ccccc1)N(C)C` [Methylephedrine] yielded a CC50 at 24 h (AC50 (uM) modified / 1000, Tox21_110001=Tox21_111521, viability, 1 nM T3 present, 24 h) above 50 µM. Take `CC/C=C\CCCCCCCCCCOC(C)=O` [(Z)-11-Tetradecenyl acetate]: the CC50 at 24 h (AC50 (uM) modified / 1000) was above 90 µM. Where the note is “AC50 (uM) modified / 1000”, `CCCC(CCC)C(=O)OC1C[C@H]2CC[C@@H](C1)[N+]2(C)C` (stereo partly drawn) [Anisotropine methylbromide] had a CC50 at 24 h above 50 µM. Consider `CC1CCC(CO)CC1` (stereo not drawn) [4-Methylcyclohexanemethanol], for which, for the setting “AC50 (uM) modified / 1000”, the CC50 at 24 h was above 90 µM. Turning to `C1COC(NC(C2CC2)C2CC2)=N1` [Rilmenidine], the CC50 at 24 h (AC50 (uM) modified / 1000) is above 50 µM. For the compound `Nc1cc(Cl)c(N=C2NCCN2)c(Cl)c1` [Apraclonidine hydrochloride], the CC50 at 24 h (AC50 (uM) modified / 1000) was above 50 µM. Compound `NS(=O)(=O)c1cc2c(cc1Cl)N=CNS2(=O)=O` [Chlorothiazide] yielded a CC50 at 24 h (AC50 (uM) modified / 1000) above 90 µM.

As for `CC(C)CC(C)(C)C` [2,2,4-Trimethylpentane], the CC50 at 24 h (AC50 (uM) modified / 1000) was above 100 µM. Where the note is “AC50 (uM) modified / 1000”, `N#[N+]c1ccc2c(S(=O)(=O)[O-])cccc2c1O` [1-Naphthalenesulfonic acid, 6-diazo-5,6-dihydro-5-oxo, sodium salt] showed a cytotoxic concentration (CC50) at 24 h above 90 µM.

Take `Clc1cc(Cl)c(OCC#CI)cc1Cl` [Haloprogin]: the cytotoxic concentration (CC50) at 24 h (AC50 (uM) modified / 1000) was 11.9 µM. Take `CCCCCCCCCC(=O)NO` [Decanohydroxamic acid]: where the note is “AC50 (uM) modified / 1000”, the CC50 at 24 h is above 50 µM. Consider `NC(=O)Cn1c(=O)cc(CCN2CCN(c3nccc4sccc34)CC2)c2ccc(F)cc21` [Trelanserin], for which, for the setting “AC50 (uM) modified / 1000”, the midpoint of cytotoxicity, the CC50 at 24 h, lay at 52.8 µM. `NS(=O)(=O)c1cc2c(cc1Cl)NC(C(Cl)Cl)NS2(=O)=O` (stereo not drawn) [Trichlormethiazide] registered a CC50 at 24 h (AC50 (uM) modified / 1000) above 20 µM. The same measure, in the same setting: for `O=Nc1ccc(O)cc1` [4-Nitrosophenol] the value was above 90 µM. The same measure, in the same setting: the same measure for `CC1(C)S[C@@H]2[C@H](NC(=O)C(C(=O)Oc3ccc4c(c3)CCC4)c3ccccc3)C(=O)N2[C@H]1C(=O)O` (stereo partly drawn) [Carbenicillin indanyl]: above 50 µM; for `O=S(=O)(O)c1ccc2cc(O)c(S(=O)(=O)O)cc2c1` [Disodium 3-hydroxynaphthalene-2,7-disulfonate]: above 90 µM.

Turning to `C=C(C)[C@@H]1CCC2=CCC[C@@H](C)[C@]2(C)C1` [Valencene], under “AC50 (uM) modified / 1000”, the CC50 at 24 h was above 90 µM.
